The values that follow come from patent US20060258697A1, “Method of augmenting the antitumor activity of anticancer agents” (priority 2003, published 2006).

Series [1] has as its system A253 squamous cell carcinoma of the head and neck xenografts. Nature of the series: Cure rate / antitumor activity in nude mice bearing A253 head and neck xenografts. The format is in vivo. How it is done: (§1) 5-Methylselenocysteine (MSC). Two schedules were evaluated: 1) in combination with irinotecan, MSC (0.2 mg/mouse/d×28) was administered orally for 28 days with the first dose administered daily for seven days prior to the weekly drug administration and 2) in combination with other drugs, MSC was administered orally (0.2 mg/mouse/d×14) daily for 14 days with the first dose administered daily for seven days prior to the single i.v. administration of taxol, CDDP, Dox, taxotere and cyclophosphamide.
(§2) Anticancer drug administration. The anticancer drugs administration schedule was as follows. • i. Irinotecan (CPT-11), weekly i.v. push for four (4) weeks, • ii. Taxol, single i.v. push, • iii. Cisplatin (CDDP), single i.v. push. • iv. Doxorubin (Dox), single i.v. push. • v. Cyclophosphamide, single i.v. push. • vi. Oxaliplatin, single i.v. push • vii. Taxotere, single i.v. push
Tumor Xenografts. […] The following tumor xenografts were established. • i. HCT-8: poorly-differentiated colon carcinoma, expressing wild type p53 • ii. HT-29: well-differentiated colon carcinoma expressing mutant p53 • iii. A253: well-differentiated squamous cell carcinoma of the head and neck (SCCHN) expressing no p53 • iv. FaDu: poorly-differentiated squamous cell carcinoma of the head and neck (SCCHN) expressing mutant p53
This example describes the comparative antitumor activity of MSC and SLM in combination with the maximum tolerated dose of irinotecan. […] As an illustration, MSC and SLM were used in combination with irinotecan. The results, shown in FIG. 3, represent a comparative evaluation of the effect of MSC and SLM (0.2 mg/mouse/d×28) on the antitumor activity of irinotecan (100 mg/kg/wk×4).
To determine whether therapeutic synergy achieved with irinotecan in xenografts is specific for MSC, the antitumor activity of irinotecan with and without two selenium-containing compounds, MSC and SLM were compared in xenografts bearing A253 (SCCHN) tumors for the […] (200 mg/kg/wk×4). The data compare the antitumor activity of MSC with SLM in combination with irinotecan (200 mg/kg/wk×4).
(§3) This example describes the modulation of the antitumor activity of anticancer drugs by MSC in mice bearing human tumors. […] To determine whether modulation of the therapeutic efficacy and cure of irinotecan by MSC is drug specific, the antitumor activity of drugs, representing different classes and mechanisms of action were evaluated alone and in combination with non-toxic doses and schedules of MSC (0.2 mg/mouse/d×14) in xenografts bearing human A253 and FaDu (SCCHN) tumors (FIG. 5). The data in FIG. 5 represent the use of the MTD doses of cisplatin (8 mg/kg×1), cyclophosphamide (100 mg/kg×1), taxol (35 mg/kg ×1.) and doxorubicin (10 mg/kg×1).

The subject of series [2] is FaDu squamous cell carcinoma of the head and neck xenografts. Nature of the series: Cure rate / antitumor activity in nude mice bearing FaDu head and neck xenografts. The class given is in vivo. As to the method:
as §1, §2
Tumor Xenografts. […] The following tumor xenografts were established. • i. HCT-8: poorly-differentiated colon carcinoma, expressing wild type p53 • ii. HT-29: well-differentiated colon carcinoma expressing mutant p53 • iii. A253: well-differentiated squamous cell carcinoma of the head and neck (SCCHN) expressing no p53 • iv. FaDu: poorly-differentiated squamous cell carcinoma of the head and neck (SCCHN) expressing mutant p53 […]
as §3
In mice, MSC was orally administered at 0.2 mg/mouse/d with the first daily dose administered seven days prior to single i.v. administration of drug and continuous for additional seven days for a total MSC treatment of 14 days.

Another series concerns nude mice. The following applies: taxotere 100 mg/kg single i.v.
A further series is described as follows: in vivo. The settings on record: nude, mouse.

Turning to `CC(=O)O[C@@]12CO[C@@H]1C[C@H](O)[C@@]1(C)C(=O)[C@H](O)C3=C(C)[C@@H](OC(=O)[C@H](O)[C@@H](NC(=O)OC(C)(C)C)c4ccccc4)C[C@@](O)([C@@H](OC(=O)c4ccccc4)[C@H]21)C3(C)C` [Taxotere], the “CR (%) (complete tumor regression)” value in series [1] is 0%; in series [2] (Table 3 first column pair (head printed 'FaUra'), drug dose mg/kg and MSC mg/mouse/day in parentheses of Treatment, schedules per footnote) it was 0%. Also, the “PR (%) (partial tumor regression, >50% tumor reduction)” value stood at 20% in series [1]; 40% in series [2] (Table 3 first column pair (head printed 'FaUra'), drug dose mg/kg and MSC mg/mouse/day in parentheses of Treatment). Further, the “animals cured of their tumors” value is given as “insensitive” in series [1] (A253, taxotere 60 mg/kg single i.v., alone or with MSC 0.2 mg/mouse/d × 14) and “insensitive” in series [2] (FaDu, taxotere 60 mg/kg single i.v., alone or with MSC 0.2 mg/mouse/d × 14). The same molecule returned a lethality with nude mice of 40%. The molecule also had an MTD in “in vivo” of 60 mg/kg.
